According to US20240041050A1, “CELL PENETRATING PEPTIDE MEDIATED RNA TRANSDUCTION WITHIN INSECT CELLS” (PIONEER HI-BRED INTERNATIONAL, INC., priority 2020, published 2024):
Ends that are not written are not given here.

Columns and labels:
[1] = test system: western corn rootworm (WCR) larvae; experiment: Oral toxicity screening of CPPs in artificial diet; assay type: in vivo; settings: first instar WCR larvae; for Affected (%): mortality and stunting
Protocol: Briefly, CPPs were incorporated into standard WCR artificial diet in 96-well microtiter plate format. A 25 μL aliquot of dosing solution was combined with 75 μL molten low-melt WCR diet and shaken on an orbital shaker to mix. Once diet solidified, preconditioned first instar WCR (freshly-hatched insects placed on neutral diet for 24 hours prior to transfer to test diet) were added to the diet plates at a rate of 1 insect·well^−1. Plates were placed inside an incubator (Percival Scientific, Inc., Perry, IA) set to 27° C., 65% RH, and a 24-hour dark cycle. The assay was scored for mortality and stunting affects after 7 and 12 days, without diet refresh, on a 0-3 scale, where 3=mortality, 2=severe stunting, 1=stunting, 0=no affect when compared with untreated larvae. The assay was repeated three times and end-results were tabulated using all three replicates and converted to percentages (Table 5).

DvWL2 cells = experiment: CPP-mediated delivery of mCherry mRNA cargo into insect cells; assay type: cell-based, Diabrotica virgifera virgifera; settings: complex of 75 μM unlabeled CPP and 10 μg mCherry mRNA, overnight
From the text: (§1) Sample preparation and analysis methods were based on those previously reported (Jafari et al. (201 4) “Serum stability and physicochemical characterization of a novel amphipathic peptide C6M 1 for siRNA delivery”, PLoS One, 9(5), e97797; and Gillet et al. (2017) “Investigating Engineered Ribonucleoprotein Particles to Improve Oral RNAi Delivery in Crop Insect Pests”, Frontiers in Physiology, 8(256), doi: 10.3389/fphys.2017.00256). Reagents are described in Examples 1 and 2. Nanocomplex samples were prepared in one of several ways, depending on type of CPP, RNA, or assay. […] Reaction volumes added to cells were 6.38 μL CPP and 6.38 μL mRNA. Final optimal CPP concentration was assessed by amount of fluorescent signal apparent within cells. For insect cell-based assays with CPP-YFP·Cy3-dsRNA or CPP·dsRNA, first a complex formation solution was prepared in molecular biology-grade water containing 90 mg·mL^−1 maltose, 9 mg·mL^−1 mannitol, 392. 16 mM CaCI2, pH 7.0, and vacuum-filtered using Corning™ Disposable Vacuum Filter and Storage System containing a cellulose nitrate filter. Then, increasing amounts of CPP-YFP were added to Cy3-dsRNA, from a molar ratio (CPP-YFP:Cy3-dsRNA) of 1:4 through 8:1 and incubated protected from light at 25° C. for 90 minutes prior to assessment via gel shift and DLS. Reaction volumes added per cell well were comprised of 17 μL reaction solution, 1 μL CPP, 1 μL dsRNA, and 1 μL molecular biology grade water; reaction sizes for larger total volumes were increased in increments of 20 μL and component ratio was held constant to maintain an ionic strength of […]. Final optimal molar ratio selected for cell experiments were determined by increase of the apparent size of the Cy3-dsRNA band on a native agarose gel (FIG. 2A and FIG. 2B), and/or appearance and increase in size of the complex peak detected by a Zetasizer Ultra (Malvern Panalytical, Malvern, United Kingdom) DLS instrument (FIG. 2C). […] Final optimal BAPC1 concentration was assessed by amount of fluorescent signal apparent within cells. […]

Sf9 cells = experiment: as above; assay type: cell-based, Spodoptera frugiperda; settings: complex of 75 μM unlabeled CPP and 10 μg mCherry mRNA, overnight
From the text: as §1

DU182A cells = experiment: as above; assay type: cell-based, Diabrotica undecimpunctata; settings: complex of 75 μM unlabeled CPP and 10 μg mCherry mRNA, overnight
From the text: as §1

Compound: VRLPPPVRLPPPLVRPPPL [VRLPPPVRLPPPLVRPPPL]
- Mortality (%) ([1]; 0.195 ppm in artificial diet): 0%
- Affected (%) ([1]; 0.195 ppm in artificial diet): 0%
- Mortality (%) ([1]; 0.391 ppm in artificial diet): 0%
- Affected (%) ([1]; 0.391 ppm in artificial diet): 0%
- Mortality (%) ([1]; 0.781 ppm in artificial diet): 0%
- Affected (%) ([1]; 0.781 ppm in artificial diet): 0%
- Mortality (%) ([1]; 1.56 ppm in artificial diet): 0%
- Affected (%) ([1]; 1.56 ppm in artificial diet): 0%
- Mortality (%) ([1]; 3.13 ppm in artificial diet): 0%
- Affected (%) ([1]; 3.13 ppm in artificial diet): 0%
- Mortality (%) ([1]; 6.25 ppm in artificial diet): 0%
- Affected (%) ([1]; 6.25 ppm in artificial diet): 0%
- Mortality (%) ([1]; 12.5 ppm in artificial diet): 0%
- Affected (%) ([1]; 12.5 ppm in artificial diet): 0%
- Mortality (%) ([1]; 25.0 ppm in artificial diet): 0%
- Affected (%) ([1]; 25.0 ppm in artificial diet): 0%
- Mortality (%) ([1]; 50.0 ppm in artificial diet): 0%
- Affected (%) ([1]; 50.0 ppm in artificial diet): 0%
- Mortality (%) ([1]; 100 ppm in artificial diet): 0%
- Affected (%) ([1]; 100 ppm in artificial diet): 0%
- Mortality (%) ([1]; 200 ppm in artificial diet): 0%
- Affected (%) ([1]; 200 ppm in artificial diet): 0%

Compound: KQINNWFINQRKRHWK [Knotted-1, KQINNWFINQRKRHWK]
- Mortality (%) ([1]; 0.195 ppm in artificial diet): 0%
- Affected (%) ([1]; 0.195 ppm in artificial diet): 0%
- Mortality (%) ([1]; 0.391 ppm in artificial diet): 0%
- Affected (%) ([1]; 0.391 ppm in artificial diet): 0%
- Mortality (%) ([1]; 0.781 ppm in artificial diet): 0%
- Affected (%) ([1]; 0.781 ppm in artificial diet): 0%
- Mortality (%) ([1]; 1.56 ppm in artificial diet): 0%
- Affected (%) ([1]; 1.56 ppm in artificial diet): 0%
- Mortality (%) ([1]; 3.13 ppm in artificial diet): 0%
- Affected (%) ([1]; 3.13 ppm in artificial diet): 0%
- Mortality (%) ([1]; 6.25 ppm in artificial diet): 0%
- Affected (%) ([1]; 6.25 ppm in artificial diet): 0%
- Mortality (%) ([1]; 12.5 ppm in artificial diet): 0%
- Affected (%) ([1]; 12.5 ppm in artificial diet): 0%
- Mortality (%) ([1]; 25.0 ppm in artificial diet): 0%
- Affected (%) ([1]; 25.0 ppm in artificial diet): 0%
- Mortality (%) ([1]; 50.0 ppm in artificial diet): 0%
- Affected (%) ([1]; 50.0 ppm in artificial diet): 0%
- Mortality (%) ([1]; 100 ppm in artificial diet): 0%
- Affected (%) ([1]; 100 ppm in artificial diet): 0%
- Mortality (%) ([1]; 200 ppm in artificial diet): 0%
- Affected (%) ([1]; 200 ppm in artificial diet): 0%
- fluorescent protein translated from delivered mCherry mRNA (fluorescent signal inside cells) (DvWL2 cells): Translation of mRNA into a functional fluorescent protein occurred
- fluorescent protein translated from delivered mCherry mRNA (fluorescent signal inside cells) (Sf9 cells): Translation of mRNA into a functional fluorescent protein occurred
- fluorescent protein translated from delivered mCherry mRNA (fluorescent signal inside cells) (DU182A cells): Translation of mRNA into a functional fluorescent protein occurred

Compound: CSCC[C@H](NC(=O)[C@@H](NC(=O)[C@H](CO)NC(=O)CNC(=O)[C@H](C)NC(=O)[C@H](C)NC(=O)CNC(=O)[C@H](CC(C)C)NC(=O)[C@H](Cc1ccccc1)NC(=O)CNC(=O)[C@H](CC(C)C)NC(=O)[C@H](Cc1ccccc1)NC(=O)[C@H](CC(C)C)NC(=O)[C@H](C)NC(=O)CN)[C@@H](C)O)C(=O)NCC(=O)N[C@@H](C)C(=O)N[C@@H](Cc1c[nH]c2ccccc12)C(=O)N[C@@H](CO)C(=O)N[C@@H](CCC(N)=O)C(=O)N1CCC[C@H]1C(=O)N[C@@H](CCCCN)C(=O)N[C@@H](CO)C(=O)N[C@@H](CCCCN)C(=O)N[C@@H](CCCNC(=N)N)C(=O)N[C@@H](CCCCN)C(=O)N[C@H](C(=O)O)C(C)C [MPG]
- Affected (%) ([1]; 0.195 ppm in artificial diet): 0%
- Affected (%) ([1]; 0.391 ppm in artificial diet): 0%
- Affected (%) ([1]; 0.781 ppm in artificial diet): 0%
- Affected (%) ([1]; 1.56 ppm in artificial diet): 0%
- Affected (%) ([1]; 3.13 ppm in artificial diet): 0%
- Affected (%) ([1]; 6.25 ppm in artificial diet): 0%
- Affected (%) ([1]; 12.5 ppm in artificial diet): 0%
- Affected (%) ([1]; 25.0 ppm in artificial diet): 0%
- Affected (%) ([1]; 50.0 ppm in artificial diet): 0%
- Affected (%) ([1]; 100 ppm in artificial diet): 0%
- Affected (%) ([1]; 200 ppm in artificial diet): 0%
- fluorescent protein translated from delivered mCherry mRNA (fluorescent signal inside cells) (DvWL2 cells): Translation of mRNA into a functional fluorescent protein occurred
- fluorescent protein translated from delivered mCherry mRNA (fluorescent signal inside cells) (Sf9 cells): Translation of mRNA into a functional fluorescent protein occurred
- fluorescent protein translated from delivered mCherry mRNA (fluorescent signal inside cells) (DU182A cells): Translation of mRNA into a functional fluorescent protein occurred
